# Earlier results in patent US10729782B2, “Antibody-drug conjugate produced by binding through linker having hydrophilic structure” (DAIICHI SANKYO COMPANY, LIMITED, priority 2012, dated 2020).
# Legend:
# various cancer cells = conditions: against various cancer cells, compared with SN-38 and topotecan; cited from earlier work
# [1] = tested on: human tumor subcutaneously transplanted mouse model; conditions: cited from earlier work
# topoisomerase I = molecular target: T1, topoisomerase I (Homo sapiens, UniProt P11387); conditions: compared with SN-38 and topotecan; cited from earlier work
# T1 sequence (P11387 1-765): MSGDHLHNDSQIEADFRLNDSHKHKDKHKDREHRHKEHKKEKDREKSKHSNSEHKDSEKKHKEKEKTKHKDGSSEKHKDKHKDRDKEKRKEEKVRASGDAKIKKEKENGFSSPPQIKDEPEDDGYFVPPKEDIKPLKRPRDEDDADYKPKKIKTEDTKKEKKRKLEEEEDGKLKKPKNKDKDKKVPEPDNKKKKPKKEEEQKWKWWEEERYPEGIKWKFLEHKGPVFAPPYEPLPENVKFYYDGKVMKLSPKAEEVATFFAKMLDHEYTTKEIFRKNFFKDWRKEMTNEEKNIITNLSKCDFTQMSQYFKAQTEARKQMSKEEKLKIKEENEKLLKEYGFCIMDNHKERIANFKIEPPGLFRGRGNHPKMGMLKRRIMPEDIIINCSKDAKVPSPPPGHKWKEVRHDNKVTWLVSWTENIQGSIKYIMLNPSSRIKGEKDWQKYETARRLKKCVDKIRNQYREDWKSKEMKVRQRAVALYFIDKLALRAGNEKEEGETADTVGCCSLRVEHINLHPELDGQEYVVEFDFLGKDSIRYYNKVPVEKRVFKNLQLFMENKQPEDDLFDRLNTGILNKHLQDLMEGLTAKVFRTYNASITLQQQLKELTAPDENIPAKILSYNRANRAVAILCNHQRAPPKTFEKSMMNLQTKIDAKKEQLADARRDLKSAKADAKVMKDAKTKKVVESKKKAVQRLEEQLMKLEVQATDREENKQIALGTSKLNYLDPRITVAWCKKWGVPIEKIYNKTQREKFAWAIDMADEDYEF
compound,measurement,setting,value
"CC[C@@]1(O)C(=O)OCc2c1cc1n(c2=O)Cc2c-1nc1cc(F)c(C)c3c1c2[C@@H](N)CC3 [exatecan, (1S,9S)-1-amino-9-ethyl-5-fluoro-2,3-dihydro-9-hydroxy-4-methyl-1H,12H-benzo[de]pyrano[3′,4′:6,7]indolizino[1,2-b]quinolin-10,13(9H,15H)-dione]",in vitro cytocidal activity,various cancer cells,higher in vitro cytocidal activity
same,antitumor effect,[1],potent antitumor effect
same,inhibitory activity on topoisomerase I,topoisomerase I,higher than SN-38
